Results published in patent publication US10576102B2, “KOC1-derived peptide and vaccine including same” (ONCOTHERAPY SCIENCE, INC., priority 2014, dated 2020).
“Also recorded” adds a separate entry of the source.

Key:
Format in all cases: cell-based, human
[1] = tested on: peptide-pulsed C1R-A11; test: In vitro CTL induction, IFN-gamma ELISPOT assay (HLA-A*1101); conditions: CTLs induced with peptide-pulsed DCs from HLA-A*1101-positive volunteers; day 21; vs peptide-pulsed C1R-A11, compared with unpulsed control
Method: (§1) C1R (C1R-A11) that stably expresses HLA-A*1101 was used as a stimulator cell. A cDNA encoding the open-reading frame of HLA-A*1101 was amplified by PCR and cloned into an expression vector. C1R cells were transfected with the expression vector, and then selected using G418 (Invitrogen) for two weeks. The G418-selected cells were seeded into wells containing G418-added culture medium in a 96-well plate, and further cultured for 30 days. The exogenous HLA-A*1101 expression in C1R cells was verified by flow cytometric analysis.
(§2) Monocyte-derived dendritic cells (DCs) were used as the antigen-presenting cell to induce a cytotoxic T lymphocyte (CTL) response against peptides presented on human leukocyte antigens (HLAs). As described in the other sections, DCs were generated in vitro (Nakahara S et al., Cancer Res 2003, 63(14): 4112-8). Specifically, peripheral-blood mononuclear cells isolated from healthy volunteers (HLA-A*1101-positive) with the Ficoll-Paque plus solution (Pharmacia) were separated by attaching to plastic tissue culture dishes (Becton Dickinson) and concentrated as a monocyte fraction. The monocyte-concentrated population was cultured in the presence of 1000 IU/ml granulocyte macrophage colony-stimulating factor (R&D System) and 1000 IU/ml interleukin(IL)-4 (R&D System) in an AIM-V medium (Invitrogen) containing 2% heat-inactivated autologous serum (AS). After seven days of culturing, the cytokine-induced DCs were pulsed with 20 micro-g/ml each of the synthesized peptides in an AIM-V medium at 37 degrees C. for three hours in the presence of 3 micro-g/ml beta 2-microglobulin. The generated cells appeared to express on their cell surface DC-associated molecules such as CD80, CD83, CD86 and HLA class II (data not shown). Next, these peptide-pulsed DCs were inactivated, by X-ray irradiation (20 Gy), and mixed in a 1:20 ratio with autologous CD8^+ T cells obtained by positive selection using the CD8 Positive Isolation Kit (Dynal). These culture products were seeded in a 48-well plate (Corning). Each well was made to contain 1.5×10^4 peptide-pulsed DCs, 3×10^5 CD8^+ T cells and 10 ng/ml IL-7 (R&D System) in 0.5 ml of the AIM-V/2% AS medium. Three days later, these culture products were added with a final concentration of 20 IU/ml IL-2 (CHIRON). On day 7 and day 14, T cells were further stimulated with peptide-pulsed autologous DCs. The DCs were prepared every time by the same method as above. On day 21, after the third peptide stimulation, CTLs were examined against the peptide-pulsed C1R-A11 by a human interferon (IFN)-gamma enzyme-linked immunospot (ELISPOT) assay (Tanaka H et al., Br J Cancer 2001, 84(1): 94-9; Umano Y et al., Br J Cancer 2001, 84(8): 1052-7; Uchida N et al., Clin Cancer Res 2004, 10(24): 8577-86; Suda T et al., Cancer Sci 2006, 97(5): 411-9; Watanabe T et al., Cancer Sci 2005, 96(8): 498-506).
(§3) Specifically, peptide-pulsed C1R-A11 (1×10^4 cells/well) was prepared as the stimulator cell. The induced CTLs, i.e., CTL lines and CTL clones, were used as the responder cell. The IFN-gamma ELISPOT assay and IFN-gamma ELISA were performed according to the manufacturer's manual.

[2] = tested on: peptide-pulsed C1R-A03; test: In vitro CTL induction, IFN-gamma ELISPOT assay (HLA-A*0301); conditions: CTLs induced with peptide-pulsed DCs from HLA-A*0301-positive volunteers; day 21; vs peptide-pulsed C1R-A03, compared with unpulsed control; listed as KOC1-A03-10-414
Method: as §1, with “(C1R-A03)” for “(C1R-A11)”, “HLA-A*0301” for “HLA-A*1101”
as §2, with “(HLA-A*0301-positive)” for “(HLA-A*1101-positive)”, “inactivated” for “inactivated,”, “On day 21, after the third peptide stimulation, CTLs were examined against the peptide-pulsed C1R-A11 by a human interferon (IFN)-gamma enzyme-linked immunospot (ELISPOT) assay (Tanaka H et al., Br J Cancer 2001, 84(1): 94-9; Umano Y et al., Br J Cancer 2001, 84(8): 1052-7; Uchida N et al., Clin Cancer Res 2004, 10(24): 8577-86; Suda T et al., Cancer Sci 2006, 97(5): 411-9; Watanabe T et al., Cancer Sci 2005, 96(8): 498-506).” left out

[3] = tested on: peptide-pulsed C1R-A11; test: IFN-gamma ELISA of CTL lines and CTL clones (HLA-A*1101)
Method: CTLs were propagated in culture using methods similar to those disclosed by Riddell et al. (Walter E A et al., N Engl J Med 1995, 333(16): 1038-44; Riddell S R et al., Nat Med 1996, 2(2): 216-23). The CTLs were co-cultured in a total of 25 ml AIM-V medium containing 5% AS (AIM-V/5% AS) and 40 ng/ml anti-CD3 antibody with two types of Mitomycin C-treated human B lymphoblastoid cell lines at 5×10^6 cells/flask. One day after beginning of the culturing, 120 IU/ml IL-2 was added to the culture. On days 5, 8 and 11, a fresh AIM-V/5% AS medium containing 30 IU/ml IL-2 was added to the culture (Tanaka H et al., Br J Cancer 2001, 84(1): 94-9; Umano Y et al., Br J Cancer 2001, 84(8): 1052-7; Uchida N et al., Clin Cancer Res 2004, 10(24): 8577-86; Suda T et al., Cancer Sci 2006, 97(5): 411-9; Watanabe T et al., Cancer Sci 2005, 96(8): 498-506).
Dilution of CTLs was carried out to make 0.3, 1 and 3 cells/well in 96 round-bottomed microtiter plates (Nalge Nunc International). The CTLs were co-cultured with two types of Mitomycin C-treated human B lymphoblastoid cell lines at 1×10^4 cells/well in a total of 150 micro-1/well AIM-V/5% AS medium with 30 ng/ml anti-CD3 antibody and 125 IU/ml IL-2. Ten days later, IL-2 was added to the medium at 50 micro-1/well to reach a final concentration of 125 IU/ml. On day 14, the CTL activity was tested, and the CTL clones were propagated using the same method as described above (Uchida N et al., Clin Cancer Res 2004, 10(24): 8577-86; Suda T et al., Cancer Sci 2006, 97(5): 411-9; Watanabe T et al., Cancer Sci 2005, 96(8): 498-506).
as §3

## ALSVGAIIGK (a peptide derived from KOC1) [SEQ ID NO: 28]
[1]
  peptide-specific CTL activity (IFN-gamma production), ELISPOT: potent IFN-gamma production
[2]
  peptide-specific CTL activity (IFN-gamma production), ELISPOT: no specific IFN-gamma production; also recorded: specific IFN-gamma production was not observed

## LSVGAIIGK (a peptide derived from KOC1) [SEQ ID NO: 5]
[3]; CTL clones by limiting dilution, peptide-pulsed C1R-A11, listed as KOC1-A11-9-415
  IFN-gamma production of CTL clones, ELISA: Potent IFN-gamma production
[3]; CTL lines, target cells pulsed with the peptide vs not pulsed, C1R-A11
  IFN-gamma production of CTL lines, ELISA: potent IFN-gamma production
[1]
  peptide-specific CTL activity (IFN-gamma production), ELISPOT: potent IFN-gamma production
